What was measured:
Assay type in all cases: physicochemical
[1] = Stability of DBNPA in various solvents, stored at 60° C., HPLC; settings: for % DBNPA retained: 2.0 g DBNPA + 8.0 g solvent
[2] = Stability of CMIT and DBNPA mixtures in GTA, stored at 50° C., HPLC; settings: […]% CMIT/MIT mixture
Method: Surfactants were TweenTM 20, TritonTM DF-12 or TritonTM CF-10. The compositions were stored at 50° C. for 4 weeks and the concentrations of active ingredients ([…]) in the compositions were determined by HPLC at the indicated time intervals.

[3] = Stability of DCOIT and DBNPA mixtures in GTA, stored at 40° C., HPLC; settings: 4% DCOIT
Method: […] […] Surfactants were TweenTM 20, TritonTM DF-12 or TritonTM CF-10. These compositions were stored at 40° C. for 6 weeks and the concentrations of active ingredients ([…]) in the compositions were determined by HPLC at the indicated time intervals.

[4] = Freeze/thaw stability of DCOIT/DBNPA/surfactant/GTA compositions, HPLC; settings: for % DBNPA retained after Freezing and Thawing: thawed at 25° C. 5 hours, three times
Method: Samples were prepared to test the freeze/thaw stability of compositions of the present invention. The freeze/thaw test was conducted for compositions of […], surfactant and GTA prepared in Example 4. Samples (20 g each) were stored at -10° C. or -25° C. for 19 hours to be frozen; samples were then stored at 25° C. for 5 hours to be thawed. This sequence was repeated three times. Then the concentrations of active ingredients ([…]) in the compositions were determined by HPLC.

- % retained ([1]; after 4 weeks in glycol, amide, ether and ketone solvents): less than 50%
- % DBNPA retained ([1]; solvent 62% dipropylene glycol in water (comparative), 1 week): 95%
- % DBNPA retained ([1]; solvent 62% dipropylene glycol in water (comparative), 4 weeks): 20%
- % DBNPA retained ([1]; solvent 75% dipropylene glycol in water (comparative), 1 week): 79%
- % DBNPA retained ([1]; solvent 86% dipropylene glycol in water (comparative), 1 week): 49%
- % DBNPA retained ([1]; solvent GTA, 1 week): 92%
- % DBNPA retained ([1]; solvent GTA, 2 weeks): 100%
- % DBNPA retained ([1]; solvent GTA, 3 weeks): 100%
- % DBNPA retained ([1]; solvent GTA, 4 weeks): 100%
- % DBNPA retained ([1]; solvent PGMEA (comparative), 1 week): 80%
- % DBNPA retained ([1]; solvent PGMEA (comparative), 2 weeks): 65%
- % DBNPA retained ([1]; solvent PGMEA (comparative), 3 weeks): 61%
- % DBNPA retained ([1]; solvent PGMEA (comparative), 4 weeks): 45%
- % DBNPA retained ([1]; solvent diethyl phthalate, 1 week): 100%
- % DBNPA retained ([1]; solvent diethyl phthalate, 2 weeks): 98%
- % DBNPA retained ([1]; solvent diethyl phthalate, 3 weeks): 98%
- % DBNPA retained ([1]; solvent diethyl phthalate, 4 weeks): 98%
- % DBNPA retained ([1]; solvent dimethyl formamide (comparative), 1 week): 73%
- % DBNPA retained ([1]; solvent dimethyl formamide (comparative), 2 weeks): 46%
- % DBNPA retained ([1]; solvent ethyl acetate, 1 week): 100%
- % DBNPA retained ([1]; solvent ethyl acetate, 2 weeks): 100%
- % DBNPA retained ([1]; solvent ethyl acetate, 3 weeks): 100%
- % DBNPA retained ([1]; solvent ethyl acetate, 4 weeks): 100%
- % DBNPA retained ([1]; solvent methyl amyl ketone (comparative), 1 week): 9%
- % DBNPA retained ([1]; solvent methyl amyl ketone (comparative), 2 weeks): 12%
- % DBNPA retained ([1]; solvent methyl amyl ketone (comparative), 3 weeks): 0%
- % DBNPA retained ([1]; solvent octyl pyrrolidone (comparative), 1 week): 62%
- % DBNPA retained ([1]; solvent octyl pyrrolidone (comparative), 2 weeks): 50%
- % DBNPA retained ([1]; solvent octyl pyrrolidone (comparative), 3 weeks): 45%
- % DBNPA retained ([1]; solvent triethylene glycol dimethyl ether (comparative), 1 week): 15%
- % DBNPA retained ([1]; solvent triethylene glycol dimethyl ether (comparative), 2 weeks): 0%
- % DBNPA retained ([2]; 5% Triton CF-10, 45% GTA, 0 Time): 100%
- % DBNPA retained ([2]; 5% Triton CF-10, 45% GTA, 1 Week): 97%
- % DBNPA retained ([2]; 5% Triton CF-10, 45% GTA, 2 Weeks): 93%
- % DBNPA retained ([2]; 5% Triton CF-10, 45% GTA, 3 Weeks): 77%
- % DBNPA retained ([2]; 5% Triton CF-10, 45% GTA, 4 Weeks): 69%
- % DBNPA retained ([2]; 5% Triton DF-12, 45% GTA, 0 Time): 100%
- % DBNPA retained ([2]; 5% Triton DF-12, 45% GTA, 1 Week): 98%
- % DBNPA retained ([2]; 5% Triton DF-12, 45% GTA, 2 Weeks): 95%
- % DBNPA retained ([2]; 5% Triton DF-12, 45% GTA, 3 Weeks): 73%
- % DBNPA retained ([2]; 5% Triton DF-12, 45% GTA, 4 Weeks): 68%
- % DBNPA retained ([2]; 5% Tween 20, 45% GTA, 0 Time): 100%
- % DBNPA retained ([2]; 5% Tween 20, 45% GTA, 1 Week): 97%
- % DBNPA retained ([2]; 5% Tween 20, 45% GTA, 2 Weeks): 71%
- % DBNPA retained ([2]; 5% Tween 20, 45% GTA, 3 Weeks): 61%
- % DBNPA retained ([2]; 5% Tween 20, 45% GTA, 4 Weeks): 54%
- % DBNPA retained ([2]; no surfactant, 50% GTA, 0 Time): 100%
- % DBNPA retained ([2]; no surfactant, 50% GTA, 1 Week): 98%
- % DBNPA retained ([2]; no surfactant, 50% GTA, 2 Weeks): 90%
- % DBNPA retained ([2]; no surfactant, 50% GTA, 3 Weeks): 85%
- % DBNPA retained ([2]; no surfactant, 50% GTA, 4 Weeks): 78%
- % DBNPA retained ([3]; 5% Triton CF-10, 66% GTA, 4 Weeks): 93.5%
- % DBNPA retained ([3]; 5% Triton CF-10, 66% GTA, 6 Weeks): 91.2%
- % DBNPA retained ([3]; 5% Triton CF-10, 66% GTA, Time 0): 100.0%
- % DBNPA retained ([3]; 5% Triton DF-12, 66% GTA, 4 Weeks): 92.3%
- % DBNPA retained ([3]; 5% Triton DF-12, 66% GTA, 6 Weeks): 92.0%
- % DBNPA retained ([3]; 5% Triton DF-12, 66% GTA, Time 0): 100.0%
- % DBNPA retained ([3]; 5% Tween 20, 66% GTA, 4 Weeks): 93.3%
- % DBNPA retained ([3]; 5% Tween 20, 66% GTA, 6 Weeks): 92.1%
- % DBNPA retained ([3]; 5% Tween 20, 66% GTA, Time 0): 100.0%
- % DBNPA retained after Freezing and Thawing ([4]; Example 4 composition with Triton CF-10, frozen at −10° C. 19 hours): 98.8%
- % DBNPA retained after Freezing and Thawing ([4]; Example 4 composition with Triton CF-10, frozen at −25° C. 19 hours): 98.8%
- % DBNPA retained after Freezing and Thawing ([4]; Example 4 composition with Triton DF-12, frozen at −10° C. 19 hours): 98.8%
- % DBNPA retained after Freezing and Thawing ([4]; Example 4 composition with Triton DF-12, frozen at −25° C. 19 hours): 99%
- % DBNPA retained after Freezing and Thawing ([4]; Example 4 composition with Tween 20, frozen at −10° C. 19 hours): 99.2%
- % DBNPA retained after Freezing and Thawing ([4]; Example 4 composition with Tween 20, frozen at −25° C. 19 hours): 99.1%
Structure (SMILES): N#CC(Br)(Br)C(N)=O [DBNPA, 2,2-dibromo-3-nitrilopropionamide]
- physical stability (appearance) during freeze/thaw cycling ([4]; in GTA solutions in the presence of surfactants): clear solution, no precipitation or phase separation observed
